The record followed here is patent US9051342B2 (priority 2004, dated 2015).

A value given as a limit tells only on which side of the number the result lay.

Take `CCc1ccccc1-n1cnc(-c2cccc(C(=O)O)c2)n1` [Compound 21, 3-[1-(2-Ethyl-phenyl)-1H-[1,2,4]triazol-3-yl]-benzoic acid]: the melting point lay within 176 to 178 °C. In the case of `O=C(O)c1cccc(-c2cnn(-c3ccc(OC(F)(F)F)cc3)c2)c1` [Compound 133, 3-[1-(4-Trifluoromethoxy-phenyl)-1H-pyrazol-4-yl]-benzoic acid] it was 213 to 215 °C; in that of `Cc1ccc(-n2cnc(-c3cccc(C(=O)O)c3)n2)cc1Cl` [Compound 38, 3-[1-(3-Chloro-4-methyl-phenyl)-1H-[1,2,4]triazol-3-yl]-benzoic acid], 269 to 272 °C; in that of `Cc1ccc(-n2ccc(-c3cccc(C(=O)O)c3)c2)cc1` [Compound 156, 3-(1-p-Tolyl-1H-pyrrol-3-yl)-benzoic acid], 178 to 181 °C. `COc1ccc(-n2cnc(-c3cccc(C(=O)O)c3)n2)cc1` [Compound 12, 3-[1-(4-Methoxy-phenyl)-1H-[1,2,4]triazol-3-yl]-benzoic acid] registered a melting point of 230 to 232 °C. For `CC(C)c1ccc(-c2nn(-c3ccc(C(=O)O)cc3)c(=O)s2)cc1` [Compound 281, 4-[5-(4-isopropylphenyl)-2-oxo-1,3,4-thiadiazol-3(2H)-yl]benzoic acid], the melting point lay in the range of 205 to 208 °C.

Molecule `COc1cccc(-n2ccc(-c3cccc(C#N)c3)n2)c1` [Compound 59, 3-[1-(3-Methoxy-phenyl)-1H-pyrazol-3-yl]-benzonitrile] registered a melting point of 100 to 101 °C.

The molecule `O=C(O)c1cccc(-c2ccn(-c3cccc(OCc4ccccc4)c3)c2)c1` [Compound 246, 3-[1-(3-Benzyloxy-phenyl)-1H-pyrrol-3-yl]-benzoic acid] came in with a melting point of 142 to 144 °C. Regarding `O=C(O)c1ccc(-n2cc(-c3cnccn3)cn2)cc1` [Compound 120, 4-(4-Pyrazin-2-yl-pyrazol-1-yl)-benzoic acid], the melting point is 319 to 321 °C. On to `CC(C)c1ccc(-n2ccc(-c3ccc(C(=O)O)cc3)c2)cc1` [Compound 106, 4-[1-(4-Isopropyl-phenyl)-1H-pyrrol-3-yl]-benzoic acid], for which the melting point lay in the range of 240 to 243 °C.

For `Cc1ccccc1-n1nc(-c2cccc(C(=O)O)c2)[nH]c1=O` [Compound 41, 3-(5-Oxo-1-o-tolyl-4,5-dihydro-1H-[1,2,4]triazol-3-yl)-benzoic acid], the melting point is > 310 °C.

On to `COc1ccc2c(c1)-c1nn(-c3cccc(C(=O)O)c3)cc1C2` [Compound 140, 3-(7-Methoxy-4H-indeno[1,2-c]pyrazol-2-yl)-benzoic acid], for which the melting point was in the range of 225 to 227 °C. For `O=C(O)c1ccc(-c2cnn(-c3ccc(C(F)(F)F)cc3)c2)cc1` [Compound 236, 4-[1-(4-Trifluoromethyl-phenyl)-1H-pyrazol-4-yl]-benzoic acid] the value was 271 to 273 °C. For `O=C(O)c1cccc(-c2ccn(-c3cccs3)n2)c1` [Compound 258, 3-(1-Thiophen-2-yl-1H-pyrazol-3-yl)-benzoic acid] the value was 198 to 199 °C. As to `O=C(O)c1ccc(-n2cc(-c3ccccc3Br)nn2)cc1` [Compound 270, 4-[4-(2-Bromo-phenyl)-[1,2,3]triazol-1-yl]-benzoic acid], the melting point is 261 to 262 °C. `O=C(O)c1ccc(-n2cc(-c3ccccc3)cn2)cc1` [Compound 99, 4-(4-Phenyl-pyrazol-1-yl)-benzoic acid] had a melting point of 267 to 269 °C. In the case of `O=C(O)c1cccc(-n2ccc(-c3ccc(Cl)cc3)n2)c1` [Compound 80, 3-[3-(4-Chloro-phenyl)-pyrazol-1-yl]-benzoic acid] it was 230 to 235 °C.

With `O=C(O)c1cccc(-c2nn(-c3cccc(F)c3)c(=O)[nH]2)c1` [Compound 42, 3-[1-(3-Fluoro-phenyl)-5-oxo-4,5-dihydro-1H-[1,2,4]triazol-3-yl]-benzoic acid], the melting point was > 310 °C. Turning to `O=C(O)c1ccc(-n2cc(-c3cccc(OC(F)F)c3)cn2)cc1` [Compound 214], the melting point was in the range of 220 to 222 °C. The molecule `O=C(O)c1ccc(-c2cnn(-c3ccc(Cl)cc3)c2)cc1` [Compound 234, 4-[1-(4-Chloro-phenyl)-1H-pyrazol-4-yl]-benzoic acid] registered a melting point of 259 to 261 °C. Turning to `COc1cccc2c1Cc1cn(-c3ccc(C(=O)O)cc3)nc1-2` [Compound 187, 4-(5-Methoxy-4H-indeno[1,2-c]pyrazol-2-yl)-benzoic acid], the melting point was in the range of 311 to 313 °C. Molecule `O=C(O)c1ccc(-c2ccn(-c3cccnc3)n2)cc1` [Compound 261, 4-(1-Pyridin-3-yl-1H-pyrazol-3-yl)-benzoic acid] registered a melting point of 280 to 282 °C.

`O=C(O)c1ccc(-n2cc(-c3ccccc3F)nn2)cc1` [Compound 264, 4-[4-(2-Fluoro-phenyl)-[1,2,3]triazol-1-yl]-benzoic acid] returned a melting point of 292 to 294 °C.

`CN(C)c1ccc(-c2cnn(-c3cccc(C(=O)O)c3)c2)cc1` [Compound 110, 3-[4-(4-Dimethylamino-phenyl)-pyrazol-1-yl]-benzoic acid] displayed a melting point of 224 to 225 °C. As to `N#Cc1cccc(-c2ccn(-c3ccc(OC(F)(F)F)cc3)n2)c1` [Compound 61, 3-[1-(4-Trifluoromethoxy-phenyl)-1H-pyrazol-3-yl]-benzonitrile], the melting point was 83 to 84 °C. Consider `N#Cc1cccc(-c2ccn(-c3ccccc3)n2)c1` [Compound 57, 3-(1-Phenyl-1H-pyrazol-3-yl)-benzonitrile], for which the melting point lay in the range of 78 to 80 °C. In turn, `COc1cccc(-n2cc(-c3cccc(C(=O)O)c3)cn2)c1` [Compound 174, 3-[1-(3-Methoxy-phenyl)-1H-pyrazol-4-yl]-benzoic acid] returned a melting point of 156 to 157 °C.

As to `O=C(O)c1cccc(-c2ccn(-c3ccccc3F)n2)c1` [Compound 86, 3-[1-(2-Fluoro-phenyl)-1H-pyrazol-3-yl]-benzoic acid], the melting point was 157 to 158 °C. Take `Cc1cccc(-n2ccc(-c3cccc(C(=O)O)c3)n2)c1` [Compound 167, 3-(1-m-Tolyl-1H-pyrazol-3-yl)-benzoic acid]: the melting point lay within 162 to 164 °C. In turn, `Cc1ccc(-c2cnn(-c3cccc(C(=O)O)c3)c2)cc1` [Compound 48, 3-(4-p-Tolyl-pyrazol-1-yl)-benzoic acid] registered a melting point of 208 to 209 °C. For `O=C(O)c1cccc(-c2ncn(-c3ccc(N4CCC4=O)cc3)n2)c1` [Compound 44, 3-{1-[4-(2-Oxo-azetidin-1-yl)-phenyl]-1H-[1,2,4]triazol-3-yl}-benzoic acid] the value was 295 to 297 °C; for `COc1cccc2c1CCc1cn(-c3cccc(C(=O)O)c3)nc1-2` [Compound 147, 3-(6-Methoxy-4,5-dihydro-benzo[g]indazol-2-yl)-benzoic acid], 232 to 233 °C; for `COc1ccc2c(c1)-c1nn(-c3cccc(C(=O)O)c3)cc1CC2` [Compound 143, 3-(8-Methoxy-4,5-dihydro-benzo[g]indazol-2-yl)-benzoic acid], 192 to 193 °C. Consider `O=C(O)c1ccc(-n2cc(-c3ccccc3F)cn2)cc1` [Compound 85, 4-[4-(2-Fluoro-phenyl)-pyrazol-1-yl]-benzoic acid], for which the melting point is 260 to 261 °C. In the case of `O=C(O)c1cccc(-c2ccn(-c3ccccc3Cl)c2)c1` [Compound 198, 3-[1-(2-Chloro-phenyl)-1H-pyrrol-3-yl]-benzoic acid] it was 198 to 200 °C; in that of `O=C(O)c1ccc(-n2cc(-c3ccc(F)cc3)nn2)cc1` [Compound 266, 4-[4-(4-Fluoro-phenyl)-[1,2,3]triazol-1-yl]-benzoic acid], 321 to 323 °C; in that of `O=C(O)c1ccc(-n2cc3c(n2)-c2cccc(OC(F)F)c2C3)cc1` [Compound 188, 4-(5-Difluoromethoxy-4H-indeno[1,2-c]pyrazol-2-yl)-benzoic acid], 277 to 278 °C. For `O=C(O)c1cccc(-n2cc3c(n2)-c2ccccc2OC3)c1` [Compound 144, 3-(4H-Chromeno[4,3-c]pyrazol-2-yl)-benzoic acid] the value was 227 to 228 °C; for `O=C(O)c1cccc(-c2ncn(-c3ccc(-c4cc5ccccc5o4)cc3)n2)c1` [Compound 26, 3-[1-(4-Benzofuran-2-yl-phenyl)-1H-[1,2,4]triazol-3-yl]-benzoic acid], 293 to 295 °C. For `O=C(O)c1cccc(-n2cc(-c3cccc(Br)c3)cn2)c1` [Compound 88, 3-[4-(3-Bromo-phenyl)-pyrazol-1-yl]-benzoic acid] the value was 177 to 178 °C; for `O=C(O)c1ccc(-n2cc3c(n2)-c2ccccc2OC3)cc1` [Compound 162], 308 to 310 °C; for `CC(C)c1ccc(-c2cn(-c3cccc(C(=O)O)c3)c(N)n2)cc1` [Compound 1, 3-[2-amino-4-(4-isopropylphenyl)-1H-imidazol-1-yl]benzoic acid], 279 to 282 °C (dec.).

On to `O=C(O)c1cccc(-c2ncn(-c3cccc(Br)c3)n2)c1` [Compound 35, 3-[1-(3-Bromo-phenyl)-1H-[1,2,4]triazol-3-yl]-benzoic acid], for which the melting point was in the range of 253 to 255 °C. Molecule `O=C(O)c1cccc(-n2ccc(-c3ccccc3F)n2)c1` [Compound 169, 3-[3-(2-Fluoro-phenyl)-pyrazol-1-yl]-benzoic acid] showed a melting point of 166 to 167 °C. For `CC(C)c1ccc(-c2nn(-c3ccc(C(=O)O)cc3)c(=O)o2)cc1` [Compound 277, 4-[5-(4-Isopropyl-phenyl)-2-oxo-[1,3,4]oxadiazol-3-yl]-benzoic acid] the value was 252 to 254 °C; for `Cc1nc(-c2cccc(C(=O)O)c2)nn1-c1cccc(F)c1` [Compound 34, 3-[1-(3-Fluoro-phenyl)-5-methyl-1H-[1,2,4]triazol-3-yl]-benzoic acid], 236 to 238 °C.

`O=C(O)c1cccc(-n2cc(-c3cnc4ccccc4n3)cn2)c1` [Compound 122, 3-(4-Quinoxalin-2-yl-pyrazol-1-yl)-benzoic acid] returned a melting point of 325 to 326 °C.
